{"source": "patent US20040171632A1", "about": "“Combination chemotherapy” (priority 1998, published 2004)", "key": {"[1]": {"test_system": "colon 26 carcinoma cells", "assay": "apoptosis of colon 26 carcinoma cells in culture (phalloidin-FITC, flow cytometry)", "assay_type": "cell-based, mouse", "details": "for increase of apoptosis: FIG. 1; for incidence in apoptosis: second study, FIG. 2", "experimental": "The data establish that the vehicle alone (DMSO) caused no effect on apoptosis (programmed cell death) of the colon 26 carcinoma cells. […] At the 30 nM concentration of paclitaxel, the combination caused about an 18% incidence in apoptosis.\nThe assay described above was repeated, and the results (see FIG. 2) confirmed that the combinations of this invention are useful to treat and control cancer. In this second study, DMSO did cause measurable cell death, somewhat similar to that observed with the 30 nM concentration of paclitaxel alone."}, "[2]": {"test_system": "non-small cell lung carcinoma cells (A549)", "details": "Taxol alone at 10 nM; one set of experiments", "method": "The colon 26 carcinoma cells were originally collected from a mouse that had undergone surgery to remove the infected section of the colon, and are now readily available from Southern Research Institute (Birmingham, Ala., USA). The cells were cultured to approximately 80% confluency on Day 0 of the assay. At 72 hours after the 80% confluency was established, dimethylsulfoxide (DMSO) was added to one set of cells to act as untreated controls. Paclitaxel at concentrations of 30 nM and 100 nM was added to other sets of cells. All of the cells were incubated at 38° C. for 48 hours, at which time MEK inhibitor 2-(2-chloro-4-iodophenylamino)-N-cyclopropylmethoxy-3,4-difluorobenzamide (PD184352), at a concentration of 1.0 micromolar, was added to one set of the DMSO control cells, and to the cells containing the two concentrations of paclitaxel. All cells were again incubated for an additional 48-hour period. The cells were harvested from the growth medium, and were fixed in ethanol. The cells were then treated with FITC (fluorescein isothiocyanate)-labeled phalloidin (Sigma). Binding of phalloidin-FITC to depolymerized actin thereby serves as a measure of apoptosis. Propidium iodide was also added to the treated and control cells for the purpose of staining all cells. The extent of apoptosis of tumor cells was measured by flow cytometry analysis. […]"}}, "data": [{"smiles": "Cc1cc(I)ccc1Nc1ccc(Cl)cc1C(=O)NCCO", "note": "[Example 31, 5-Chloro-N-(2-hydroxyethyl)-2-(4-iodo-2-methyl-phenylamino)-benzamide]", "values": [{"measurement": "melting point", "value": "120 to 121", "unit": "°C"}]}, {"smiles": "Cc1cc(I)ccc1Nc1cc(F)ccc1CO", "note": "[Example 49, 4-Fluoro-2-(4-iodo-2-methyl-phenylamino)-benzyl alcohol]", "values": [{"measurement": "melting point", "value": "99 to 100.5", "unit": "°C"}]}, {"smiles": "Cc1cc(I)ccc1Nc1ccccc1-c1nnn[nH]1", "note": "[Example 208, (4-iodo-2-methyl-phenyl)-[2-(1H-tetrazol-5-yl)-phenyl]amine]", "values": [{"measurement": "melting point", "value": 231, "unit": "°C"}]}, {"smiles": "O=C(NOCC1CC1)c1ccc(F)c(F)c1Nc1ccc(I)cc1Cl", "note": "[PD184352, 2-(2-chloro-4-iodophenylamino)-N-cyclopropylmethoxy-3,4-difluorobenzamide]", "values": [{"measurement": "increase of apoptosis", "setting": "[1]; MEK inhibitor alone, at 30 nM as printed", "value": "about 5%"}, {"measurement": "incidence in apoptosis", "setting": "[1]; MEK inhibitor administered alone", "value": "~18", "unit": "%"}]}, {"smiles": "CC(=O)O[C@H]1C(=O)[C@@]2(C)[C@H]([C@H](OC(=O)c3ccccc3)[C@]3(O)C[C@H](OC(=O)[C@H](O)[C@@H](NC(=O)c4ccccc4)c4ccccc4)C(C)=C1C3(C)C)[C@]1(OC(C)=O)CO[C@@H]1C[C@@H]2O", "note": "[paclitaxel]", "values": [{"measurement": "incidence of apoptosis", "setting": "[2]", "value": 41, "unit": "%"}, {"measurement": "increase of apoptosis", "setting": "[1]; paclitaxel alone at 30 nM", "value": "about 9%"}, {"measurement": "increase of apoptosis", "setting": "[1]; paclitaxel alone at 100 nM", "value": "about 18%"}, {"measurement": "incidence in apoptosis", "setting": "[1]; paclitaxel at 100 nM alone", "value": "~11", "unit": "%"}]}]}
